Patent US9302999B2, “Substituted triazoles as herbicides” (E. I. DU PONT DE NEMOURS AND COMPANY, priority 2012, dated 2016)

Columns and labels:
Assay type in all cases: in vivo
corn (Zea mays) = experiment: Test C pre-/postemergence: corn
How it was run: (§1)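 Visual injury scored 0–100 (100 = complete control) against untreated controls after 13–15 greenhouse days. Surfactant-containing solvent formulations applied either to soil after sowing (loam/sand) or over 1- to 4-leaf plants, 2–18 cm tall.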

[1] = test system: galium (catchweed bedstraw, Galium aparine); experiment: Test C pre-/postemergence: galium
How it was run: as §1

[2] = test system: nightshade (eastern black nightshade, Solanum ptycanthum); experiment: Test C pre-/postemergence: nightshade; conditions: Preemergence
How it was run: as §1

[3] = test system: common (oilseed) sunflower (Helianthus annuus); experiment: Test C pre-/postemergence: sunflower; conditions: Preemergence
How it was run: as §1

[4] = test system: velvetleaf (Abutilon theophrasti); experiment: Test C pre-/postemergence: velvetleaf
How it was run: as §1

[5] = test system: lambsquarters (Chenopodium album); experiment: Test C pre-/postemergence: lambsquarters
How it was run: as §1

[6] = test system: winter wheat (Triticum aestivum); experiment: Test C pre-/postemergence: winter wheat
How it was run: as §1

rice (Oryza sativa) = experiment: Test B flooded paddy: rice; conditions: Flood; 250 g ai/ha; applied to paddy water at 2-leaf stage; visually evaluated after 13 to 15 days
How it was run: (§2)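 Visual ratings (0 = no effect, 100 = complete control) versus untreated controls were taken 13–15 days after treatment of greenhouse plants. Treatment was added to paddy water held at 3 cm depth on 2-leaf-stage seedlings.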

[7] = test system: sedge, umbrella (small-flower umbrella sedge Cyperus difformis); experiment: Test B flooded paddy: sedge, umbrella; conditions: Flood; 250 g ai/ha; applied to paddy water at 2-leaf stage; visually evaluated after 13 to 15 days
How it was run: as §2

[8] = test system: morningglory (Ipomoea coccinea); experiment: Test C pre-/postemergence: morningglory
How it was run: as §1

[9] = test system: canarygrass (Phalaris minor); experiment: Test C postemergence: canarygrass
How it was run: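 Visual ratings of 0 (no effect) to 100 (complete control) were made against controls 13-15 days after a postemergence spray, with plants kept in a greenhouse. Plants were 2-18 cm tall (1- to 4-leaf stage) in Redi-Earth peat/vermiculite medium at treatment.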

[10] = test system: cocklebur (common cocklebur, Xanthium strumarium); experiment: Test C pre-/postemergence: cocklebur
How it was run: as §1

[11] = Postemergence, 31 g ai/ha, scale 0 to 100 (0 no effect, 100 complete control)
[12] = Postemergence, 62 g ai/ha, scale 0 to 100 (0 no effect, 100 complete control)
[13] = Postemergence, 125 g ai/ha, scale 0 to 100, 0 no effect, 100 complete control
[14] = Postemergence, 250 g ai/ha, scale 0 to 100
[15] = Preemergence, 31 g ai/ha, scale of 0 to 100, 0 is no effect, 100 is complete control
[16] = Preemergence, 62 g ai/ha, scale of 0 to 100, 0 is no effect, 100 is complete control
[17] = Preemergence, 125 g ai/ha, scale 0 to 100, 0 no effect, 100 complete control
[18] = Preemergence, 250 g ai/ha, scale 0 to 100, 0 no effect, 100 complete control
[19] = 31 g ai/ha, scale of 0 to 100, 0 is no effect, 100 is complete control
[20] = 62 g ai/ha, scale of 0 to 100, 0 is no effect, 100 is complete control
[21] = 125 g ai/ha, scale 0 to 100, 0 no effect, 100 complete control
[22] = 250 g ai/ha, scale 0 to 100, 0 no effect, 100 complete control
[23] = 31 g ai/ha, scale 0 to 100 (0 no effect, 100 complete control)
[24] = 62 g ai/ha, scale 0 to 100 (0 no effect, 100 complete control)
[25] = Preemergence, 31 g ai/ha, scale 0 (no effect) to 100 (complete control)
[26] = Preemergence, 62 g ai/ha, scale 0 to 100, 0 no effect, 100 complete control
[27] = Postemergence, 250 g ai/ha, scale 0 to 100 (0 no effect, 100 complete control)
[28] = 31 g ai/ha, scale 0 (no effect) to 100 (complete control)
[29] = 62 g ai/ha, scale 0 to 100, 0 no effect, 100 complete control

Cc1nn(-c2ccc(C(F)(F)F)c(F)c2)nc1Oc1ccnc(C(F)(F)F)c1 [Compound 148]
Plant response rating, Corn (corn (Zea mays); [11]): 25
Plant response rating, Corn (corn (Zea mays); [12]): 30
Plant response rating, Corn (corn (Zea mays); [13]): 55
Plant response rating, Corn (corn (Zea mays); [14]): 60
Plant response rating, Corn (corn (Zea mays); [15]): 5
Plant response rating, Corn (corn (Zea mays); [16]): 10
Plant response rating, Corn (corn (Zea mays); [17]): 15
Plant response rating, Corn (corn (Zea mays); [18]): 45
Plant response rating, Galium [1, 11]: 80
Plant response rating, Galium [1, 12]: 90
Plant response rating, Galium [1, 13]: 90
Plant response rating, Galium [1, 14]: 90
Plant response rating, Galium [1, 15]: 80
Plant response rating, Galium [1, 16]: 100
Plant response rating, Galium [1, 17]: 100
Plant response rating, Galium [1, 18]: 100
Plant response rating, Nightshade [2, 19]: 25
Plant response rating, Nightshade [2, 20]: 60
Plant response rating, Nightshade [2, 21]: 85
Plant response rating, Nightshade [2, 22]: 85
Plant response rating, Sunflower [3, 19]: 0
Plant response rating, Sunflower [3, 20]: 0
Plant response rating, Sunflower [3, 21]: 10
Plant response rating, Sunflower [3, 22]: 10
Plant response rating, Velvetleaf [4, 11]: 50
Plant response rating, Velvetleaf [4, 12]: 50
Plant response rating, Velvetleaf [4, 13]: 80
Plant response rating, Velvetleaf [4, 14]: 85
Plant response rating, Velvetleaf [4, 15]: 15
Plant response rating, Velvetleaf [4, 16]: 55
Plant response rating, Velvetleaf [4, 17]: 70
Plant response rating, Velvetleaf [4, 18]: 80
Plant response rating, Lambsquarters [5, 11]: 98
Plant response rating, Lambsquarters [5, 12]: 98
Plant response rating, Lambsquarters [5, 13]: 98
Plant response rating, Lambsquarters [5, 14]: 98
Plant response rating, Lambsquarters [5, 15]: 15
Plant response rating, Lambsquarters [5, 16]: 25
Plant response rating, Lambsquarters [5, 17]: 65
Plant response rating, Lambsquarters [5, 18]: 85
Plant response rating, Wheat [6, 11]: 20
Plant response rating, Wheat [6, 12]: 25
Plant response rating, Wheat [6, 13]: 40
Plant response rating, Wheat [6, 14]: 40
Plant response rating, Wheat [6, 16]: 5
Plant response rating, Wheat [6, 17]: 30
Plant response rating, Wheat [6, 18]: 35
Plant response rating, Rice (0 to 100 scale, 0 is no effect, 100 is complete control) (rice (Oryza sativa)): 45
Plant response rating, Sedge, Umbrella (0 to 100 scale, 0 is no effect, 100 is complete control) [7]: 85
Plant response rating, Morningglory [8, 11]: 70
Plant response rating, Morningglory [8, 12]: 98
Plant response rating, Morningglory [8, 13]: 98
Plant response rating, Morningglory [8, 14]: 98
Plant response rating, Morningglory [8, 15]: 20
Plant response rating, Morningglory [8, 16]: 20
Plant response rating, Morningglory [8, 17]: 55
Plant response rating, Morningglory [8, 18]: 75
Plant response rating, Canarygrass [9, 23]: 40
Plant response rating, Canarygrass [9, 24]: 60
Plant response rating, Canarygrass [9, 21]: 95
Plant response rating, Canarygrass ([9]; 250 g ai/ha, scale 0 to 100): 95
Plant response rating, Cocklebur [10, 11]: 85
Plant response rating, Cocklebur [10, 12]: 98
Plant response rating, Cocklebur [10, 13]: 98
Plant response rating, Cocklebur [10, 15]: 10

CCOc1nn(-c2ccc(F)cc2)nc1Cc1ccnc(C(F)(F)F)c1 [Compound 196, 4-[[5-ethoxy-2-(4-fluorophenyl)-2H-1,2,3-triazol-4-yl]methyl]-2-(trifluoromethyl)pyridine]
Plant response rating, Corn (corn (Zea mays); [11]): 60
Plant response rating, Corn (corn (Zea mays); [12]): 60
Plant response rating, Corn (corn (Zea mays); [13]): 65
Plant response rating, Corn (corn (Zea mays); [14]): 65
Plant response rating, Corn (corn (Zea mays); [25]): 25
Plant response rating, Corn (corn (Zea mays); [26]): 35
Plant response rating, Corn (corn (Zea mays); [17]): 45
Plant response rating, Corn (corn (Zea mays); [18]): 50
Plant response rating, Galium [1, 11]: 80
Plant response rating, Galium [1, 12]: 85
Plant response rating, Galium [1, 13]: 90
Plant response rating, Galium [1, 27]: 95
Plant response rating, Galium [1, 25]: 85
Plant response rating, Galium [1, 26]: 95
Plant response rating, Galium [1, 17]: 98
Plant response rating, Galium [1, 18]: 100
Plant response rating, Nightshade [2, 28]: 100
Plant response rating, Nightshade [2, 29]: 100
Plant response rating, Nightshade [2, 21]: 100
Plant response rating, Nightshade [2, 22]: 100
Plant response rating, Sunflower [3, 28]: 5
Plant response rating, Sunflower [3, 29]: 20
Plant response rating, Sunflower [3, 21]: 30
Plant response rating, Sunflower [3, 22]: 40
Plant response rating, Velvetleaf [4, 11]: 55
Plant response rating, Velvetleaf [4, 12]: 65
Plant response rating, Velvetleaf [4, 13]: 75
Plant response rating, Velvetleaf [4, 27]: 80
Plant response rating, Velvetleaf [4, 25]: 60
Plant response rating, Velvetleaf [4, 26]: 70
Plant response rating, Velvetleaf [4, 17]: 80
Plant response rating, Velvetleaf [4, 18]: 100
Plant response rating, Lambsquarters [5, 11]: 95
Plant response rating, Lambsquarters [5, 12]: 95
Plant response rating, Lambsquarters [5, 13]: 95
Plant response rating, Lambsquarters [5, 27]: 95
Plant response rating, Lambsquarters [5, 25]: 85
Plant response rating, Lambsquarters [5, 26]: 90
Plant response rating, Lambsquarters [5, 17]: 95
Plant response rating, Lambsquarters [5, 18]: 95
Plant response rating, Wheat [6, 11]: 15
Plant response rating, Wheat [6, 12]: 35
Plant response rating, Wheat [6, 13]: 45
Plant response rating, Wheat [6, 27]: 45
Plant response rating, Wheat [6, 25]: 0
Plant response rating, Wheat [6, 26]: 15
Plant response rating, Wheat [6, 17]: 40
Plant response rating, Wheat [6, 18]: 50
Plant response rating, Rice (0 to 100 scale, 0 is no effect, 100 is complete control) (rice (Oryza sativa)): 70
Plant response rating, Sedge, Umbrella (0 to 100 scale, 0 is no effect, 100 is complete control) [7]: 100
Plant response rating, Morningglory [8, 11]: 75
Plant response rating, Morningglory [8, 12]: 75
Plant response rating, Morningglory [8, 13]: 75
Plant response rating, Morningglory [8, 27]: 75
Plant response rating, Morningglory [8, 25]: 40
Plant response rating, Morningglory [8, 26]: 85
Plant response rating, Morningglory [8, 17]: 100
Plant response rating, Morningglory [8, 18]: 100
Plant response rating, Canarygrass [9, 23]: 80
Plant response rating, Canarygrass [9, 24]: 90
Plant response rating, Canarygrass [9, 21]: 90
Plant response rating, Canarygrass ([9]; 250 g ai/ha, scale 0 to 100): 90
Plant response rating, Cocklebur [10, 11]: 55
Plant response rating, Cocklebur [10, 12]: 60
Plant response rating, Cocklebur [10, 13]: 65
Plant response rating, Cocklebur [10, 14]: 75
Plant response rating, Cocklebur [10, 25]: 5
Plant response rating, Cocklebur [10, 17]: 45
Plant response rating, Cocklebur [10, 18]: 75
